Literature values as cited in US11526092B2, “Electrophotographic photoreceptor, process cartridge, and image forming apparatus” (FUJIFILM Business Innovation Corp., priority 2019, dated 2022).

Details: in water at 25° C.; first acid dissociation constant (pKa1)

CCCCCCCCCCCCc1ccc(S(=O)(=O)O)cc1 [DBS, dodecylbenzenesulfonic acid]
Acidic compound pKa: −2
